Test system: MV-4-11 cells
Test: Gene expression microarray analysis (Affymetrix PrimeView) and GSEA
Format: cell-based, human
Parameters: RFU PODN (11730768_x_at) / Fold change /veh PODN (11730768_x_at) / RFU LINC00158 (11744669_a_at) / Fold change /veh LINC00158 (11744669_a_at) / RFU DUSP10 (11751237_a_at) / Fold change /veh DUSP10 (11751237_a_at) / RFU ID3 (11757404_x_at) / Fold change /veh ID3 (11757404_x_at) / RFU PLEKHG5 (11737974_s_at) / Fold change /veh PLEKHG5 (11737974_s_at) / RFU LRRC4B (11730491_at) / Fold change /veh LRRC4B (11730491_at) / RFU GIMAP4 (11747438_a_at) / Fold change /veh GIMAP4 (11747438_a_at) / RFU KRT8 (11758183_x_at) / Fold change /veh KRT8 (11758183_x_at) / RFU CNN1 (11734310_a_at) / Fold change /veh CNN1 (11734310_a_at) / RFU VPS37D (11726825_at) / Fold change /veh VPS37D (11726825_at) / RFU C10orf10 (11716522_x_at) / Fold change /veh C10orf10 (11716522_x_at) / RFU KIR2DL2 /// KIR2DL4 /// KIR2DL5A /// KIR2DL5B /// KIR2DS1 /// KIR2DS2 /// KIR2DS3 /// KIR2DS4 /// KIR3DL3 /// KIR3DL3 /// KIR3DS1 (11738374_at) / Fold change /veh KIR2DL2 /// KIR2DL4 /// KIR2DL5A /// KIR2DL5B /// KIR2DS1 /// KIR2DS2 /// KIR2DS3 /// KIR2DS4 /// KIR3DL3 /// KIR3DL3 /// KIR3DS1 (11738374_at) / RFU C1QL1 (11718748_at) / Fold change /veh C1QL1 (11718748_at) / RFU TMPRSS4 (11747572_a_at) / Fold change /veh TMPRSS4 (11747572_a_at) / RFU HAMP (11756126_x_at) / Fold change /veh HAMP (11756126_x_at) / RFU RNFT2 (11725882_a_at) / Fold change /veh RNFT2 (11725882_a_at) / RFU NR4A2 (11747474_a_at) / Fold change /veh NR4A2 (11747474_a_at) / RFU ABCC12 (11746883_a_at) / Fold change /veh ABCC12 (11746883_a_at) / RFU TMEM136 (11760407_x_at) / Fold change /veh TMEM136 (11760407_x_at) / RFU CLDN22 /// WWC2 (11732394_at) / Fold change /veh CLDN22 /// WWC2 (11732394_at) / RFU HLA-DPB1 (11760878_x_at) / Fold change /veh HLA-DPB1 (11760878_x_at) / RFU SPINT1 (11716480_a_at) / Fold change /veh SPINT1 (11716480_a_at) / RFU GAP43 (11754022_s_at) / Fold change /veh GAP43 (11754022_s_at) / RFU A4GNT (11735810_at) / Fold change /veh A4GNT (11735810_at) / RFU PRB3 (11715151_x_at) / Fold change /veh PRB3 (11715151_x_at) / RFU TUBB4B (11761932_at) / Fold change /veh TUBB4B (11761932_at) / RFU CAPN14 (11732068_a_at) / Fold change /veh CAPN14 (11732068_a_at) / RFU TMCC2 (11721928_a_at) / Fold change /veh TMCC2 (11721928_a_at) / RFU IRGQ (11745062_a_at) / Fold change /veh IRGQ (11745062_a_at) / RFU FAM174B (11720279_a_at) / Fold change /veh FAM174B (11720279_a_at) / RFU TMPRSS4 (11748680_a_at) / Fold change /veh TMPRSS4 (11748680_a_at) / RFU FAM212B (11763350_a_at) / Fold change /veh FAM212B (11763350_a_at) / RFU PLEKHG5 (11743358_a_at) / Fold change /veh PLEKHG5 (11743358_a_at) / RFU ZSCAN30 (11745921_a_at) / Fold change /veh ZSCAN30 (11745921_a_at) / RFU CMKLR1 (11741424_a_at) / Fold change /veh CMKLR1 (11741424_a_at) / RFU LOC101060620 /// MAPK8IP1 (11723275_at) / Fold change /veh LOC101060620 /// MAPK8IP1 (11723275_at) / RFU SPTSSB (11747773_x_at) / Fold change /veh SPTSSB (11747773_x_at) / RFU PRSS12 (11739890_at) / Fold change /veh PRSS12 (11739890_at) / RFU BIN1 (11741810_x_at) / Fold change /veh BIN1 (11741810_x_at) / RFU WNT11 (11732464_a_at) / Fold change /veh WNT11 (11732464_a_at) / RFU C10orf10 (11716521_a_at) / Fold change /veh C10orf10 (11716521_a_at) / RFU C5orf56 (11738089_at) / Fold change /veh C5orf56 (11738089_at) / RFU CYB561 (11721691_x_at) / Fold change /veh CYB561 (11721691_x_at) / RFU ANKRD19P (11752326_a_at) / Fold change /veh ANKRD19P (11752326_a_at) / RFU OR2T12 /// OR2T33 /// OR2T8 (11738714_s_at) / Fold change /veh OR2T12 /// OR2T33 /// OR2T8 (11738714_s_at) / RFU VCAN (11748164_a_at) / Fold change /veh VCAN (11748164_a_at) / RFU JSRP1 (11732532_at) / Fold change /veh JSRP1 (11732532_at) / RFU KRTAP10-11 (11738290_x_at) / Fold change /veh KRTAP10-11 (11738290_x_at) / RFU MYO3A (11730013_a_at) / Fold change /veh MYO3A (11730013_a_at) / RFU EBF3 (11725865_a_at) / Fold change /veh EBF3 (11725865_a_at) / RFU CAMK2N1 (11719241_x_at) / Fold change /veh CAMK2N1 (11719241_x_at) / RFU C5orf56 (11738088_a_at) / Fold change /veh C5orf56 (11738088_a_at) / RFU OLFML3 (11715873_a_at) / Fold change /veh OLFML3 (11715873_a_at) / RFU LOC100653217 /// NTM (11731650_a_at) / Fold change /veh LOC100653217 /// NTM (11731650_a_at) / RFU MAPK11 (11762145_a_at) / Fold change /veh MAPK11 (11762145_a_at) / RFU FIZ1 (11724087_x_at) / Fold change /veh FIZ1 (11724087_x_at) / RFU OASL (11726364_x_at) / Fold change /veh OASL (11726364_x_at) / RFU SOX15 (11748057_x_at) / Fold change /veh SOX15 (11748057_x_at) / RFU CD79A (11719716_a_at) / Fold change /veh CD79A (11719716_a_at) / RFU HIST1H1D (11736915_at) / Fold change /veh HIST1H1D (11736915_at) / RFU CASKIN2 (11723855_a_at) / Fold change /veh CASKIN2 (11723855_a_at) / RFU LOC730098 (11760151_x_at) / Fold change /veh LOC730098 (11760151_x_at) / RFU OR4N2 (11742367_at) / Fold change /veh OR4N2 (11742367_at) / RFU PRRT2 (11749266_a_at) / Fold change /veh PRRT2 (11749266_a_at) / RFU SNX32 (11753110_a_at) / Fold change /veh SNX32 (11753110_a_at) / RFU CDHR5 (11726645_a_at) / Fold change /veh CDHR5 (11726645_a_at) / RFU RCAN1 (11760418_a_at) / Fold change /veh RCAN1 (11760418_a_at) / RFU FAM167A (11723789_a_at) / Fold change /veh FAM167A (11723789_a_at) / RFU FAM26E (11764081_at) / Fold change /veh FAM26E (11764081_at) / RFU ISYNA1 (11749810_s_at) / Fold change /veh ISYNA1 (11749810_s_at) / RFU ACY1 (11761880_at) / Fold change /veh ACY1 (11761880_at) / RFU 11764098_at / Fold change /veh 11764098_at / RFU SAMD14 (11745864_x_at) / Fold change /veh SAMD14 (11745864_x_at) / RFU NPB (11741838_a_at) / Fold change /veh NPB (11741838_a_at) / RFU TMPRSS6 (11731388_a_at) / Fold change /veh TMPRSS6 (11731388_a_at) / RFU KRTAP10-2 (11738614_at) / Fold change /veh KRTAP10-2 (11738614_at) / RFU ARHGAP8 /// PRR5-ARHGAP8 (11727945_x_at) / Fold change /veh ARHGAP8 /// PRR5-ARHGAP8 (11727945_x_at) / RFU KRTAP5-7 /// NADSYN1 (11734609_at) / Fold change /veh KRTAP5-7 /// NADSYN1 (11734609_at) / RFU RASL12 (11751679_a_at) / Fold change /veh RASL12 (11751679_a_at) / RFU CDKN2B (11736163_a_at) / Fold change /veh CDKN2B (11736163_a_at) / RFU PRF1 (11729649_at) / Fold change /veh PRF1 (11729649_at) / RFU, ZNF638 /// ZNF638-IT1 / Fold change vs veh, ZNF638 /// ZNF638-IT1 / RFU, PANK3 / Fold change vs veh, PANK3 / RFU, SH3YL1 / Fold change vs veh, SH3YL1 / RFU, ZEB2 / Fold change vs veh, ZEB2 / RFU, NRIP1 / Fold change vs veh, NRIP1 / RFU, PTTG1IP / Fold change vs veh, PTTG1IP / RFU, CAPN2 / Fold change vs veh, CAPN2 / RFU, MED14 / Fold change vs veh, MED14 / RFU, SNORA58 / Fold change vs veh, SNORA58 / RFU, C1orf63 / Fold change vs veh, C1orf63 / RFU, LRRFIP1 / Fold change vs veh, LRRFIP1 / RFU, NDUFAF7 / Fold change vs veh, NDUFAF7 / RFU, SLC12A2 / Fold change vs veh, SLC12A2 / RFU, IBTK / Fold change vs veh, IBTK / RFU, ESF1 / Fold change vs veh, ESF1 / Fold change vs veh, TMEM50B / RFU, TAOK1 / Fold change vs veh, TAOK1 / RFU, ACBD3 / Fold change vs veh, ACBD3 / RFU, TMA16 / Fold change vs veh, TMA16 / RFU, RWDD3 / Fold change vs veh, RWDD3 / RFU, BCAT1 / Fold change vs veh, BCAT1 / RFU, EDEM3 / Fold change vs veh, EDEM3 / RFU, TMEM33 / Fold change vs veh, TMEM33 / RFU, WDR75 / Fold change vs veh, WDR75 / RFU, AHCTF1 / Fold change vs veh, AHCTF1 / RFU, TFRC / Fold change vs veh, TFRC / RFU, ZDHHC17 / Fold change vs veh, ZDHHC17 / RFU, NOM1 / Fold change vs veh, NOM1 / RFU, ARL8B / Fold change vs veh, ARL8B / RFU, ZBTB11 / Fold change vs veh, ZBTB11 / RFU, TAMM41 / Fold change vs veh, TAMM41 / RFU, KIAA1704 /// LOC100996395 / Fold change vs veh, KIAA1704 /// LOC100996395 / RFU, ING1 / Fold change vs veh, ING1 / RFU, TRMT61B / Fold change vs veh, TRMT61B / RFU, FUBP3 / Fold change vs veh, FUBP3 / RFU, TP53 / Fold change vs veh, TP53 / RFU, TNKS2 / Fold change vs veh, TNKS2 / RFU, ZFP14 / Fold change vs veh, ZFP14 / RFU, ACTR2 / Fold change vs veh, ACTR2 / RFU, PPP3R1 / Fold change vs veh, PPP3R1 / RFU, PIK3R1 / Fold change vs veh, PIK3R1 / RFU, HNRNPA1 / Fold change vs veh, HNRNPA1 / RFU, RNF170 / Fold change vs veh, RNF170 / RFU, ZNF28 / Fold change vs veh, ZNF28 / RFU, RNGTT / Fold change vs veh, RNGTT / RFU, OGT / Fold change vs veh, OGT / RFU, BRD1 / Fold change vs veh, BRD1 / RFU, MARS / Fold change vs veh, MARS / RFU, ZNF655 / Fold change vs veh, ZNF655 / RFU, FAHD1 / Fold change vs veh, FAHD1 / RFU, BDP1 / Fold change vs veh, BDP1 / RFU, LRRCC1 / Fold change vs veh, LRRCC1 / RFU, ARID1A / Fold change vs veh, ARID1A / RFU, ZNF146 / Fold change vs veh, ZNF146 / RFU, ZNF330 / Fold change vs veh, ZNF330 / RFU, GPN3 / Fold change vs veh, GPN3 / RFU, C9orf123 / Fold change vs veh, C9orf123 / RFU, N4BP2L2 / Fold change vs veh, N4BP2L2 / RFU, ARFIP1 / Fold change vs veh, ARFIP1 / RFU, FAM179B / Fold change vs veh, FAM179B / RFU, BCL10 / Fold change vs veh, BCL10 / RFU, UHRF1BP1L / Fold change vs veh, UHRF1BP1L / RFU, BET1 / Fold change vs veh, BET1 / RFU, CNOT2 / Fold change vs veh, CNOT2 / RFU, ZNF268 / Fold change vs veh, ZNF268 / Fold change vs veh, ZNF507 / RFU, DGCR2 / Fold change vs veh, DGCR2 / RFU, WDSUB1 / Fold change vs veh, WDSUB1 / Fold change vs veh, HSP90B1 /// MIR3652 / RFU, ADSS / Fold change vs veh, ADSS / RFU, GK / Fold change vs veh, GK / RFU, ZNF148 / Fold change vs veh, ZNF148 / RFU, TAF9 / Fold change vs veh, TAF9 / RFU, SLC1A5 / Fold change vs veh, SLC1A5 / RFU, SLMO2 / Fold change vs veh, SLMO2 / RFU, ABCC4 / Fold change vs veh, ABCC4 / RFU, LOC101060439 /// RAP1B / Fold change vs veh, LOC101060439 /// RAP1B / RFU, RFX7 / Fold change vs veh, RFX7 / RFU, GTPBP10 / Fold change vs veh, GTPBP10 / RFU, CNEP1R1 / Fold change vs veh, CNEP1R1 / RFU, BIVM-ERCC5 /// ERCC5 / Fold change vs veh, BIVM-ERCC5 /// ERCC5 / RFU, ILF3 / Fold change vs veh, ILF3 / RFU 11762660_at / Fold change /veh 11762660_at / RFU VCAN (11757783_s_at) / Fold change /veh VCAN (11757783_s_at) / RFU DDX43 (11728927_at) / Fold change /veh DDX43 (11728927_at) / RFU KRT8 (11758188_x_at) / Fold change /veh KRT8 (11758188_x_at) / RFU NKD1 (11759106_at) / Fold change /veh NKD1 (11759106_at) / RFU SRD5A1 (11742802_a_at) / Fold change /veh SRD5A1 (11742802_a_at) / RFU TPSAB1 /// TPSB2 (11721975_s_at) / Fold change /veh TPSAB1 /// TPSB2 (11721975_s_at) / RFU GSTM3 (11746129_a_at) / Fold change /veh GSTM3 (11746129_a_at) / RFU IL23R (11737362_x_at) / Fold change /veh IL23R (11737362_x_at) / RFU TMEM51 (11727254_a_at) / Fold change /veh TMEM51 (11727254_a_at) / RFU PIWIL2 (11732686_x_at) / Fold change /veh PIWIL2 (11732686_x_at) / RFU ORM1 (11744905_x_at) / Fold change /veh ORM1 (11744905_x_at) / RFU CCDC152 (11743942_at) / Fold change /veh CCDC152 (11743942_at) / RFU ECM1 (11717891_a_at) / Fold change /veh ECM1 (11717891_a_at) / RFU IL23R (11748794_a_at) / Fold change /veh IL23R (11748794_a_at) / RFU TNFAIP8L3 (11732012_x_at) / Fold change /veh TNFAIP8L3 (11732012_x_at) / RFU MBOAT4 (11741988_at) / Fold change /veh MBOAT4 (11741988_at) / RFU 11764193_at / Fold change /veh 11764193_at / RFU TMEM53 (11763286_at) / Fold change /veh TMEM53 (11763286_at) / RFU MAGEB2 (11727129_at) / Fold change /veh MAGEB2 (11727129_at) / RFU TMEM200A (11744735_a_at) / Fold change /veh TMEM200A (11744735_a_at) / RFU CCDC152 (11751479_a_at) / Fold change /veh CCDC152 (11751479_a_at) / RFU FAM211A (11726209_a_at) / Fold change /veh FAM211A (11726209_a_at) / RFU RGS16 (11746705_a_at) / Fold change /veh RGS16 (11746705_a_at) / RFU VCAN (11755009_s_at) / Fold change /veh VCAN (11755009_s_at) / RFU RHOB (11743442_s_at) / Fold change /veh RHOB (11743442_s_at) / RFU RGS16 (11720943_a_at) / Fold change /veh RGS16 (11720943_a_at) / RFU RGS16 (11720944_at) / Fold change /veh RGS16 (11720944_at) / RFU, VPS4B / Fold change vs veh, VPS4B / RFU, CREB1 / Fold change vs veh, CREB1 / RFU, DNAJC13 / Fold change vs veh, DNAJC13 / RFU, GNAQ / Fold change vs veh, GNAQ / RFU, CDK5R1 / Fold change vs veh, CDK5R1 / RFU, ZRANB3 / Fold change vs veh, ZRANB3 / RFU, CUL4A / Fold change vs veh, CUL4A / RFU, CCNY / Fold change vs veh, CCNY / RFU, UFL1 / Fold change vs veh, UFL1 / RFU, COG3 / Fold change vs veh, COG3 / RFU, DIAPH2 / Fold change vs veh, DIAPH2 / RFU, SKA2 / Fold change vs veh, SKA2 / RFU, AFF3 / Fold change vs veh, AFF3 / RFU, LMF1 / Fold change vs veh, LMF1 / RFU, IPO11 / Fold change vs veh, IPO11 / RFU, DFFB / Fold change vs veh, DFFB / RFU, FOXP1 / Fold change vs veh, FOXP1 / RFU, CARD8 / Fold change vs veh, CARD8 / RFU, STRN3 / Fold change vs veh, STRN3 / RFU, ADK / Fold change vs veh, ADK / RFU, RASSF2 / Fold change vs veh, RASSF2 / RFU, WIPF1 / Fold change vs veh, WIPF1 / RFU, LARP1B / Fold change vs veh, LARP1B / RFU, RASA1 / Fold change vs veh, RASA1 / RFU, RB1 / Fold change vs veh, RB1 / RFU, PPFIA1 / Fold change vs veh, PPFIA1 / RFU, MAT2A / Fold change vs veh, MAT2A / RFU, CCT5 / Fold change vs veh, CCT5 / RFU, WDR92 / Fold change vs veh, WDR92 / RFU, CUX1 / Fold change vs veh, CUX1 / RFU, TTC7A / Fold change vs veh, TTC7A / RFU, TMEM135 / Fold change vs veh, TMEM135 / RFU, DEPTOR / Fold change vs veh, DEPTOR / RFU, CPM / Fold change vs veh, CPM / RFU, DNAJB6 / Fold change vs veh, DNAJB6 / RFU, CACNA2D3 / Fold change vs veh, CACNA2D3 / RFU, DTX4 / Fold change vs veh, DTX4 / RFU, TFCP2 / Fold change vs veh, TFCP2 / RFU, GMCL1 /// GMCL1P1 / Fold change vs veh, GMCL1 /// GMCL1P1 / RFU, AEBP2 / Fold change vs veh, AEBP2 / RFU, SNHG1 /// SNORD22 /// SNORD25 /// SNORD26 /// SNORD27 /// SNORD28 /// SNORD29 /// SNORD31 / Fold change vs veh, SNHG1 /// SNORD22 /// SNORD25 /// SNORD26 /// SNORD27 /// SNORD28 /// SNORD29 /// SNORD31 / Fold change (Aza/veh), C12orf56 (ProbeSet 11735607_a_at) / Fold change (ACY-1035/veh), C12orf56 (ProbeSet 11735607_a_at) / Fold change (Aza/veh), FGFR1OP (ProbeSet 11751329_s_at) / Fold change (ACY-1035/veh), FGFR1OP (ProbeSet 11751329_s_at) / Fold change (Aza/veh), VPS36 (ProbeSet 11739960_a_at) / Fold change (ACY-1035/veh), VPS36 (ProbeSet 11739960_a_at) / RFU SYPL1 (11715823_x_at) / Fold change /veh SYPL1 (11715823_x_at) / RFU IGFBP7 (11715501_s_at) / Fold change /veh IGFBP7 (11715501_s_at) / RFU REEP3 (11722064_at) / Fold change /veh REEP3 (11722064_at) / RFU IGLL1 (11728026_x_at) / Fold change /veh IGLL1 (11728026_x_at): dose or concentration left out as unconfirmed
Details: MV-4-11 cells, 48 hours

With Nc1ncn([C@@H]2O[C@H](CO)[C@@H](O)[C@H]2O)c(=O)n1 [azacitidine] the “Fold change /veh PRB3 (11715151_x_at)” value was 0.94.

Reference: PMC5218480 (PLoS ONE, 2017)
